# According to US5081253A, “Imidazo(4,5-C)pyridines as antiosteoporotic agents” (American Home Products Corporation, priority 1990, dated 1992):
# Columns and labels:
# [1] = test system: Rat Limb Bones (basal bone resorption); experiment: Basal Bone Resorption Assay: 45Ca Release from Rat Limb Bones; assay type: cell-based
# Text: The purpose of this assay is to test stimulators and inhibitors of bone resorption in vitro. The release of ^45 Ca from in vitro labeled murine bone explants into the culture media is taken as an index of bone resorption.
# Rat pups are labelled […] by injecting pregnant dams (18 days) with 100 μCi of ^45 Ca.
# Two days after the initiation of labelling, the dam is anesthetized with halothane and killed by cervical dislocation. The pups are ablated and quickly decapitated. The calvaria (frontal and parietal bones), forelimbs (containing radii and ulnae), and hind limbs (tibiae) are removed and placed in control media in a petri dish. Bones are debrided of soft tissue by a combination of blunt dissection, and gentle rolling on bibulous paper, taking care not to disturb the periosteum. Cartilaginous ends are cut off long bones. Calvaria are cut in half along midline suture. Bones are separated into 3 categories: calvaria halves, Tibiae and ulnae/radii. Groups of eight (per bone group) are randomly placed in 24-well culture plates containing 0.5 mL of control media. Cultures are maintained at 37° C. in a humidified incubator of 95% air: 5% CO2.
# These bones are incubated for 24 hours, media is aspirated from the bones and replaced with fresh media containing test substances. Each bone group has a control group of 8 and a dead bone group of 8. The devitalized cultures are obtained by heating the bones in medium at 55° C. for 60 minutes. The bones are incubated at 37° C. for an additional 72 hours. At the end of this period a 100 microliter aliquot of media is removed and placed in a scintillation vial. Ten mL of Aquasol is added, the ^45 Ca is quantified in a scintillation spectrometer. Bones are rinsed in saline, placed in a scintillation vial, hydrolyzed overnight in 0.75 mL 6N HCl at room temperature. The hydrolyzed bone solution is neutralized by the addition of 2.25 mL of 2N NaOH, followed by 10 mL of Aquasol, the ^45 Ca content is determined by scintillation spectrometry.
# Analysis: ^45 Ca release into culture medium from the 24-96 hour period is individually compared to ^45 Ca release in control cultures and to devitalized bone via Dunnett's test. […]
# [2] = test system: Rat Limb Bones (PTH induced bone resorption); experiment: Bone Resorption Assay: 45Ca Release from Rat Limb Bones (PTH Induced); assay type: cell-based, rat (Sprague-Dawley CD)
# Protocol: The purpose of this assay is to identify compounds that inhibit basal or stimulated bone resorption in culture.
# The ability of 2-substituted-imidazo[4,5-c]pyridines to modify the process of bone resorption was evaluated essentially as described by L.G. Raisz, Bone resorption in tissue culture. Factors influencing the response to parathyroid hormone.
# Timed pregnant Sprague-Dawley CD® rats (Charles River) are administered 100 μCi ^45 CaCl2 (NEN calcium -45 NEZ-013) in 100 μL of 0.9% saline, subcutaneously, on day 18 of gestation. The rats are sacrificed the following day by CO2 asphyxiation. The fetuses are removed and the right forelimbs excised and placed in a Petri dish containing ice cold explant medium consisting of modified BGJb -Fitton Jackson media (custom formulation, Gibco No. 78-0088) adjusted to pH 7.3 to which 10 mM TES is added. […] Under a dissecting microscope, the bones are gently cleaned of adherent tissue and the cartilaginous ends removed. Incubation and drug treatment. […] The preincubation medium is brought to 37° C. prior to transfer of bones. The preincubation medium consists of the modified BGJb medium (with salts and glucose as above), pH 7.3, containing 29 mM NaHCO3. […] For compounds that require nonaqueous solvents, dilutions are made from the appropriate stock solution with medium. In these instances, basal and bone resorption stimulated controls exposed to an equivalent concentration of the vehicle are included. […] The right ulna and radius from each fetus are used. Both bones are subjected to the same treatment and each treatment group consists of bones from 4 or more fetuses. Treatments are randomly assigned using a preclinical statistics program (PS-ALLOC). After a 48 hour incubation at 37° C. in 5% CO2, the bones are removed from the medium and extracted in 0.5 mL of 0.1N HCl for 1 or more days. Duplicate 150 μL aliquots of the incubation medium and the bone extract are analyzed for ^45 Ca radioactivity in 5 mL of liquid scintillation cocktail.
# The percentage of bone ^45 Ca released into the medium is determined as follows: [formula] […]
# [3] = test system: osteopenia induced by denervation of the sciatic nerve in rats; experiment: Denervation Induced Osteopenia in Rats; assay type: in vivo, rat (female Sprague Dawley CD)
# Text: The purpose of this assay is to evaluate the effect, in rats, of agents on the reduction in bone mass (osteopenia) induced by immobilization resulting from surgical severance (denervation) of the sciatic nerve.
# The animals are housed in plastic cages (4 or 5 rats/cage) with food (rat purina 500 chow) and water ad libitum; 14/10 day/night cycle.
# After one week of in-house acclimatization, the animals are randomly divided into groups of 6 to 10 rats/group. Each rat is weighed, anesthetized with an intraperitoneal administration of 100 mg/kg ketamine (Bristol Laboratories, Syracuse, N.Y.) and 0.75 mg/kg Acepromazine (Aveco, Ft. Dodge, Iowa). The left hind limb is shaved and denervated by making a lateral incision parallel to the femur and by surgically removing half of a centimeter of the sciatic nerve adjacent to caudofemoralis and adductor brevis muscles. The incision is closed with wound clips. After surgery, the rats are housed in cages with absorbent bedding to minimize additional trauma to the immobilized limb. A 24 hour post-surgery recovery period is allowed before the initiation of the drug treatment.
# The concentration of the drug stock is calculated to be delivered in a volume of 0.1 mL/100 gram body weight. The drug solution or a uniform suspension is prepared in 1% Tween 80 in normal saline. The drugs are administered via oral or parenteral routes daily (five times a week) for four weeks.
# A sequential triple labeling of mineralized tissue is employed to determine the osseous changes (especially the bone formation) and the mineralization rates. Each animal is administered 90 mg/kg Xylenol orange (Fisher Scientific Company), S.C., 15 mg/kg Calcein (Sigma Chemical Company), S.C. and 15 mg/kg Demeclocycline (Sigma Chemical Company), i.p., approximately 21 days, 10 days and 2 days prior to the termination of the study, respectively.
# At the end of the fourth week, each rat is weighed, anesthetized with an intraperitoneal administration of 100 mg/kg ketamine with 0.75 mg/kg Acepromazine and approximately 4 mL of blood collected via cardiac puncture. The anesthetized rats are euthanized by exposure to carbon dioxide. The femora and tibiae from both limbs are dissected free of soft tissue. (i) Femora are ashed at ~1100° C. for 16 hours using a muffle furnace. --(ii) Proximal tibia are fixed, dehydrated and embedded undecalcified in a methyl methacrylate-glycol methacrylate mixture. Longitudinal tissue sections (10 microns) are prepared on a Polycut S microtome (Reichert). Staining is performed on free-floating sections using a modified Goldner's stain, which are then mounted and coverslipped.
# Cancellous bone content in the proximal tibia is quantified (as two dimensional bone mineral area [B.Ar]) with an image analysis processing device (software developed by Drexel University).
# The areas of the tibia selected for cancellous bone content evaluation are the primary and secondary spongiosa. To select and standardize this area for evaluation, the epiphyseal growth plate-metaphyseal junction is oriented parallel to the abscissa of the digitizing screen. Bone elements 1.7 mm (secondary spongiosa) and 0.2 mm (primary spongiosa) from the growth plate and equidistant from the flanking cortical elements are then quantified as described above. The total area evaluated is 2.30 mm wide and 1.45 mm deep, constituting a 3.34 mm^2 area.
# Body weight, femur mass (dried or ashed) and trabecular (cancellous) bone mineral area (B.Ar) are determined.
# The difference (both absolute and percent change) in femur mass and bone mineral area between intact (control) and denervated limbs of a treatment group are compared with that for the vehicle group using a one-way analysis of variance with Dunnett's test, or other multiple comparison methods.
# The results are reported in Table I and II under the heading In Vivo.
# [4] = Table I, concentration not given
SMILES,"Inhibition of Bone Resorption, Basal ([1]; Table I, 10 μg/mL)","Inhibition of Bone Resorption, PTH Induced ([2]; Table I, 10 μg/mL)","Inhibition of Bone Resorption, In Vivo ([3]; po, 672 h)","Inhibition of Bone Resorption, Basal ([1]; Table II, 10 μg/mL)",other results
"[O-][S+](CCc1ccccc1)c1nc2cnccc2[nH]1 (stereo not drawn) [Example 14, 2-[(2-Phenylethyl)sulfinyl]-1H-imidazo[4,5-c]pyridine]",Active,Active,–,–,–
"[O-][S+](Cc1ccc(Br)cc1F)c1nc2cnccc2[nH]1 (stereo not drawn) [Example 21, 2-[[(4-Bromo-2-fluorophenyl)methyl]sulfinyl]-1H-imidazo[4,5-c]pyridine]",Active,Active,Inactive,–,–
"FC(F)(F)c1cccc(CSc2nc3cnccc3[nH]2)c1 [Example 7, 2-[[[3-(Trifluoromethyl)phenyl]methyl]thio]-1H-imidazo[4,5-c]pyridine]",–,–,–,Active,–
"Fc1cccc(Cl)c1CSc1nc2cnccc2[nH]1 [Example 9, 2-[[(2-Chloro-6-fluorophenyl)methyl]thio]-1H-imidazo[4,5-c]pyridine]",–,–,–,Inactive,"Inhibition of Bone Resorption, PTH Induced ([2]; Table II, 10 μg/mL): Inactive"
"[O-][S+](Cc1ccc(F)c(F)c1)c1nc2cnccc2[nH]1 (stereo not drawn) [Example 31, 2-[[(3,4-Difluorophenyl)methyl]sulfinyl]-1H-imidazo[4,5-c]-pyridine-One Tenth Hydrate]",Active,Active,Inactive,–,–
"c1ccc(CSc2nc3cnccc3[nH]2)cc1 [Example 11, 2-[[(Phenyl)methyl]thio]-1H-imidazo[4,5-c]pyridine]",–,–,–,Inactive,–
[O-][S+](Cc1cccc(OCc2ccccc2)c1)c1nc2cnccc2[nH]1 (stereo not drawn) [Example 23],Active,Active,Inactive,–,–
"[O-][S+](Cc1ccccc1)c1nc2cnccc2[nH]1 (stereo not drawn) [Example 12, 2-[[(Phenyl)methyl]sulfinyl]-1H-imidazo-[4,5-c]pyridine]",Active,Active,Inactive,–,–
"Fc1c(F)c(F)c(CSc2nc3cnccc3[nH]2)c(F)c1F [Example 32, 2-[[(Pentafluorophenyl)methyl]thio]-1H-imidazo[4,5-c]pyridine]",–,–,–,Inactive,"Inhibition of Bone Resorption, In Vivo ([3]; Table II, 25 mg/kg, p.o.): Inactive; Inhibition of Bone Resorption, PTH Induced ([2]; Table II, 10 μg/mL): Inactive"
"COc1cccc(C[S+]([O-])c2nc3cnccc3[nH]2)c1 (stereo not drawn) [Example 3, 2-[[(3-Methoxyphenyl)methyl]sulfinyl]-1H-imidazo[4,5-c]pyridine]",Active,–,Active,–,"IC50 ([2]; Rattus norvegicus, Table I, read-out: Inhibition of Bone Resorption, PTH Induced IC50): 49 µM; Inhibition of Bone Resorption, PTH Induced [2, 4]: Active"
"Fc1cc(Br)ccc1CSc1nc2cnccc2[nH]1 [Example 20, 2-[[(4-Bromo-2-fluorophenyl)methyl]thio]-1H-imidazo[4,5-c]pyridine]",–,–,–,Inactive,"Inhibition of Bone Resorption, PTH Induced ([2]; Table II, 10 μg/mL): Active"
"[O-][S+](Cc1c(F)cccc1Cl)c1nc2cnccc2[nH]1 (stereo not drawn) [Example 10, 2-[[(2-Chloro-6-fluorophenyl)methyl]-sulfinyl]-1H-imidazo[4,5-c]pyridine]",Active,Active,Inactive,–,–
"c1ccc(CCSc2nc3cnccc3[nH]2)cc1 [Example 13, 2-[(2-Phenylethyl)thio]-1H-imidazo[4,5-c]pyridine]",–,–,–,Inactive,"Inhibition of Bone Resorption, PTH Induced ([2]; Table II, 10 μg/mL): Inactive"
"COc1cccc(CC[S+]([O-])c2nc3cnccc3[nH]2)c1 (stereo not drawn) [Example 17, 2-[[(3 -Methoxyphenyl)ethyl]sulfinyl]-1H-imidazo[4,5-c]pyridine]",Inactive,Active,–,–,"Inhibition of Bone Resorption, In Vivo ([3]; Table I, no dose given, oral or parenteral daily (five times a week) for four weeks): Borderline"
"c1ccc(COc2cccc(CSc3nc4cnccc4[nH]3)c2)cc1 [Example 22, 2-[[[3-(Phenylmethoxy)phenyl]methyl]thio]-1H-imidazo[4,5-c]pyridine]",–,–,–,Inactive,"Inhibition of Bone Resorption, PTH Induced ([2]; Table II, 10 μg/mL): Active"
"Clc1ccc(CSc2nc3cnccc3[nH]2)cc1Cl [Example 5, 2-[[(3,4-Dichlorophenyl)methyl]thio]-1H-imidazo[4,5-c]pyridine]",–,–,–,Inactive,–
"[O-][S+](Cc1ccc(Cl)c(Cl)c1)c1nc2cnccc2[nH]1 (stereo not drawn) [Example 6, 2-[[(3,4-Dichlorophenyl)methyl]sulfinyl]-1H-imidazo[4,5-c]pyridine]",Active,Active,–,–,–
"[O-][S+](Cc1cccc(C(F)(F)F)c1)c1nc2cnccc2[nH]1 (stereo not drawn) [Example 8, 2-[[[3-(Trifluoromethyl)phenyl]methyl]-sulfinyl]-1H-imidazo[4,5-c]pyridine]",–,Active,–,–,"Inhibition of Bone Resorption, Basal [1, 4]: Inactive"
